From US7625948B2, “Ester compound and medicinal use thereof” (Japan Tobacco Inc., priority 2002, dated 2009)

Columns and labels:
[1] = target: T1, Microsomal triglyceride transfer protein (MTP) from bovine liver (Bos taurus, UniProt P55156); test: Test Example 1: inhibition of interliposomal triglyceride (TG) transfer activity by MTP (also used for metabolites in Test Example 8); assay type: biochemical; settings: MTP-mediated 14C-triolein transfer between liposomes, 37° C., one hour; read-out: Test Example 1 MTP inhibition IC50
T1 construct: from tissue; host or cells: bovine liver
T1 sequence (P55156 12-887): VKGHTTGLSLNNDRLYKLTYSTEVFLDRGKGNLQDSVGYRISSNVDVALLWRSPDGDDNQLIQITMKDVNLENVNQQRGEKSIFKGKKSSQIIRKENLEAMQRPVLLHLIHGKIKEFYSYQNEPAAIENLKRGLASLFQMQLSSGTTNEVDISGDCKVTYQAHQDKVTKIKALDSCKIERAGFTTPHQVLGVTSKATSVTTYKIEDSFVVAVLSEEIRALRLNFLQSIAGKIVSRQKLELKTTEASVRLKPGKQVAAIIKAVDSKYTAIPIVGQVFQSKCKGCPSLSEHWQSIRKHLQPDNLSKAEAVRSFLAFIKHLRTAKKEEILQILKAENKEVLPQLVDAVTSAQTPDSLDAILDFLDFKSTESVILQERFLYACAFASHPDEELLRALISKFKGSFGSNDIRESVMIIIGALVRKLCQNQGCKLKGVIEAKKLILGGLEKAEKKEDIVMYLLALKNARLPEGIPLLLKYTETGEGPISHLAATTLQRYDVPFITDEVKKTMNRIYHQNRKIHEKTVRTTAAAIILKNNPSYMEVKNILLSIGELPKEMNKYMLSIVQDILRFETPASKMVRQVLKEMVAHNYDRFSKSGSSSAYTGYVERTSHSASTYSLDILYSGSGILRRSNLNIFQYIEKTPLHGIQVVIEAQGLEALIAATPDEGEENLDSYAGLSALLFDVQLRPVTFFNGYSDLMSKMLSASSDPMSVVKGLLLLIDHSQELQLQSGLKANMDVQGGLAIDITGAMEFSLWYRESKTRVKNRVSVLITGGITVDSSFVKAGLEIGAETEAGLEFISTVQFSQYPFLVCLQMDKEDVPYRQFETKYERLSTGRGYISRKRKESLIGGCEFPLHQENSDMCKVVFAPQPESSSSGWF
T1 sequence (P05307 21-510 partner): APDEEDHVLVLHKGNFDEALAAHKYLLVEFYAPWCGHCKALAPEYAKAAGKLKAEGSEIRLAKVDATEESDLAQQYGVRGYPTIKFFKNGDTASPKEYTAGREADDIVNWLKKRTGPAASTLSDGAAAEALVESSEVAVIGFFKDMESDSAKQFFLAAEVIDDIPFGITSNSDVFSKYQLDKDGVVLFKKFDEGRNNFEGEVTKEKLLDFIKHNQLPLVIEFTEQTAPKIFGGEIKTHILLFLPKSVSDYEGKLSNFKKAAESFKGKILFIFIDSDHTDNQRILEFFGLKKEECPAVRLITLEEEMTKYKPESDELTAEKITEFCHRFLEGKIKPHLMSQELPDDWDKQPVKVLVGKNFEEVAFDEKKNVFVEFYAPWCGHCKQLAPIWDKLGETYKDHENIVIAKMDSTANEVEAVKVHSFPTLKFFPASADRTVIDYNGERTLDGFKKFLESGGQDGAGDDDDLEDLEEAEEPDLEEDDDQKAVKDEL
Protocol: Inhibition of Interliposomal Triglyceride (TG) Transfer Activity by MTP
Microsomal triglyceride transfer protein (MTP) from bovine liver was partially purified in such a way described below. A buffer (50 mM Tris, 250 mM sucrose, 1 mM EDTA, 0.02% NaN3 (pH 7.4)) for making a homogenate preparation was added to bovine liver, and the mixture was homogenated under ice-cooling, then centrifuged at 10,000×g (4° C., 30 minutes). The supernatant was adjusted to pH 5.1 with hydrochloric acid, and stirred for 30 minutes. The solution was further centrifuged at 10,000×g (4° C., 30 minutes), and 1 mM Tris buffer was added to the precipitated residue, and the mixture was adjusted to pH 8.6 with sodium hydroxide. After addition of 2.7M ammonium sulfate solution, the mixture was stirred for 30 minutes, then centrifuged at 10,000×g (4° C., 40 minutes). The resulting supernatant was served as a crude extraction fraction of MTP and stored at −80° C. under freezing. In its practical use, the crude extraction fraction of MTP was purified by column chromatography on diethylaminoethyl (DEAE) Sepharose using FPLC (Fast Performance Liquid Chromatography) system, and the purified MTP was used for the test.
Small unilamellar-vesicle (SUV) liposome (donor, 0.25 mol % triolein, 5 mol % cardiolipin) labeled with ^14C-triolein and non-labeled SUV liposome (acceptor, 0.25 mol % triolein) were prepared. A fixed amount of donor and acceptor, and MTP were mixed with a sample dissolved in DMSO or with DMSO. The mixture was incubated in a 15 mM Tris hydrochloride buffer (pH 7.4) containing 40 mM sodium chloride, 1 mM EDTA (ethylenediaminetetraacetic acid), 0.02% NaN3 and 0.5% bovine serum albumin at 37° C. for one hour. After completion of the incubation, a suspension of DEAE cellulose (50% v/v) in 15 mM Tris hydrochloride buffer (pH 7.4) was added to the above solution, and the mixture was centrifuged to separate the donor and the acceptor. The radioactivity in the acceptor was measured by liquid scintillation counter. The value obtained by subtracting the radioactivity in the blank from the amount of radioactivity in the acceptor of a DMSO group was determined as MTP-mediated TG transfer activity, and it was compared with the value obtained by subtracting the radioactivity in the blank from the radioactivity in a sample group. The blank was prepared by adding 15 mM Tris-HCl buffer (pH 7.4) in place of MTP. Inhibition rate (%) was calculated from the values obtained according to the following equation.
Inhibition rate (%)=100×(1 minus ((radioactivity of sample group minus radioactivity of blank group)/(radioactivity of DMSO group minus radioactivity of blank group))).
50% Inhibition rate (IC50) was determined on the basis of the above equation.
Inhibitory Activity on MTP and apo B Secretion Inhibition by Metabolites
In a similar manner to Test Examples 1 and 2, the activity of metabolites was assayed.

HepG2 cells = test: Test Example 2: inhibition of apolipoprotein B secretion from HepG2 cells, ELISA (also used for metabolites in Test Example 8); assay type: cell-based; settings: Homo sapiens, 24 hours, apo B in supernatant by ELISA, read-out: Test Example 2 Inhibition of apo B secretion IC50
In short: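 HepG2 cells cultured 24 h, then exposed 24 h to compounds or metabolites in medium with 0.5% DMSO. Secreted apo B in supernatant quantified by sandwich ELISA (HRP, ABTS, 405 nm) against purified human apo B standard; % inhibition vs DMSO group, IC50 derived.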

SMILES | IC50 [1] [nM] | IC50 (HepG2 cells) [nM]
CCCCOc1ccccc1C(=O)Nc1ccc(CC(=O)OCC(C(=O)NCC)(C(=O)NCC)c2ccccc2)cc1 [Example 1-52] | 10 | 690
CCOC(=O)C(COC(=O)Cc1ccc(NC(=O)c2ccccc2-c2cccc(C(F)(F)F)c2)cc1)(C(=O)OCC)c1ccccc1 [Example 1-53] | 0.43 | 860
CCCOC(=O)C(COC(=O)Cc1ccc(NC(=O)c2ccccc2-c2ccc(C(F)(F)F)cc2)cc1)(C(=O)OCCC)c1ccccc1 [Example 1-62] | 5 | 46
CC(C)COC(=O)C(COC(=O)Cc1ccc(NC(=O)c2ccccc2-c2ccc(C(F)(F)F)cc2)cc1)(C(=O)OCC(C)C)c1ccccc1 [Example 1-63] | 16 | 90
CC(C)CCNC(=O)C(COC(=O)Cc1ccc(NC(=O)c2ccccc2-c2ccc(C(F)(F)F)cc2)cc1)(C(=O)NCCC(C)C)c1ccccc1 [Example 1-67] | 27 | 28
CCNC(=O)C(COC(=O)Cc1ccc(NC(=O)c2ccccc2C2CCCCC2)cc1)(C(=O)NCC)c1ccccc1 [Example 1-69] | 9.1 | 90
CCNC(=O)C(COC(=O)Cc1ccc(NC(=O)c2ccccc2-c2ccc(Cl)cc2)cc1)(C(=O)NCC)c1ccccc1 [Example 1-70] | 1.6 | 270
CCNC(=O)C(COC(=O)Cc1ccc(NC(=O)c2ccccc2-c2ccc(Cl)c(Cl)c2)cc1)(C(=O)NCC)c1ccccc1 [Example 1-71] | 1.8 | 120
CCNC(=O)C(COC(=O)Cc1ccc(NC(=O)c2ccccc2-c2ccc(C(F)(F)F)cc2)c(C(=O)N(C)C)c1)c1ccccc1 (centres unmarked) [Example 2-21] | 1.8 | 8.9
CCOC(=O)C(COC(=O)Cc1ccc(NC(=O)c2ccccc2-c2ccc(C(F)(F)F)cc2)c(C(=O)N2CCCCC2)c1)(C(=O)OCC)c1ccccc1 [Example 2-23] | 2.7 | 0.61
CCOC(=O)C(COC(=O)Cc1ccc(NC(=O)c2ccccc2-c2ccc(C(F)(F)F)cc2)c(OC)c1)(C(=O)OCC)c1ccccc1 [Example 3-4] | 2.1 | 13
CCOC(=O)C(COC(=O)Cc1ccc(NC(=O)c2ccccc2-c2ccc(C(F)(F)F)cc2)c(OCc2ccccc2)c1)(C(=O)OCC)c1ccccc1 [Example 3-14] | 13 | 64
CCOC(=O)C(CCOC(=O)Cc1cccc(NC(=O)c2ccccc2-c2ccc(C(F)(F)F)cc2)c1C)(C(=O)OCC)c1ccccc1 [Example 5, 2-[2-(2-{2-methyl-3-[(4′-trifluoromethylbiphenyl-2-carbonyl)amino]phenyl}acetoxy)ethyl]-2-phenylmalonic acid diethyl ester] | 3.1 | 19
CCOC(=O)C(COC(=O)Cc1cccc(NC(=O)c2ccccc2-c2ccc(C(F)(F)F)cc2)c1)(C(=O)OCC)c1ccccc1 [Example 5-2] | 66.5 | 875
CCOC(=O)C(CCOC(=O)Cc1cccc(NC(=O)c2ccccc2-c2ccc(C(F)(F)F)cc2)c1)(C(=O)OCC)c1ccccc1 [Example 5-3] | 6.2 | 86.5
CCNC(=O)C(CCOC(=O)Cc1cccc(NC(=O)c2ccccc2-c2ccc(C(F)(F)F)cc2)c1)(C(=O)NCC)c1ccccc1 [Example 5-4] | 2.4 | 57
CCCNC(=O)C(CCOC(=O)Cc1cccc(NC(=O)c2ccccc2-c2ccc(C(F)(F)F)cc2)c1)(C(=O)NCCC)c1ccccc1 [Example 5-5] | 4.5 | 5
CCOC(=O)C(CCOC(=O)Cc1ccc(C)c(NC(=O)c2ccccc2-c2ccc(C(F)(F)F)cc2)c1)(C(=O)OCC)c1ccccc1 [Example 5-6] | 3.9 | 260
CC(C)NC(=O)C(CCOC(=O)Cc1cccc(NC(=O)c2ccccc2-c2ccc(C(F)(F)F)cc2)c1)(C(=O)NC(C)C)c1ccccc1 [Example 5-8] | 14 | 340
CCNC(=O)C(CCCOC(=O)Cc1cccc(NC(=O)c2ccccc2-c2ccc(C(F)(F)F)cc2)c1C)(C(=O)NCC)c1ccccc1 [Example 5-10] | 6.2 | 300
O=C(OCCC1(C(=O)NCC(F)(F)F)c2ccccc2-c2ccccc21)c1ccc(NC(=O)c2ccccc2-c2ccc(C(F)(F)F)cc2)cc1 [Example 6, 4-[(4′-Trifluoromethylbiphenyl-2-carbonyl)amino]benzoic acid 2-[9-(2,2,2-trifluoroethylcarbamoyl)-9H-fluoren-9-yl]ethyl ester] | 3.47 | 58.3
O=C(Nc1ccccc1-c1ccccc1)c1ccc(C(=O)OCCC2(C(=O)NCC(F)(F)F)c3ccccc3-c3ccccc32)cc1 [Example 6-3] | 5.2 | 510
O=C(OCCC(C(=O)NCC(F)(F)F)(c1ccccc1)c1ccccc1)c1ccc(NC(=O)c2ccccc2-c2ccc(C(F)(F)F)cc2)cc1 [Example 6-8] | 50 | 630
O=C(OCCC(C(=O)NCC(F)(F)F)c1ccccc1)c1ccc(NC(=O)c2ccccc2-c2ccc(C(F)(F)F)cc2)cc1 (centres unmarked) [Example 6-10] | 22 | 870
CCOC(=O)C(CCOC(=O)c1ccc(NC(=O)c2ccccc2-c2ccc(C(F)(F)F)cc2)cc1)(C(=O)OCC)c1ccccc1 [Example 6-14] | 6.3 | 87
CCOC(=O)C(CCOC(=O)c1ccc(NC(=O)c2ccccc2-c2ccc(C(F)(F)F)cc2)c(C)c1)(C(=O)OCC)c1ccccc1 [Example 6-15] | 2 | 57
CCOC(=O)C(CCOC(=O)c1ccc(NC(=O)c2ccccc2-c2ccc(C(F)(F)F)cc2)cc1Cl)(C(=O)OCC)c1ccccc1 [Example 6-16] | 2.9 | 170
CCOC(=O)C(CCOC(=O)c1ccc(OC(=O)c2ccccc2-c2ccc(C(F)(F)F)cc2)cc1)(C(=O)OCC)c1ccccc1 [Example 6-17] | 2.3 | 420
